Tests used:
[1] = hygroscopicity of chlorogenic acid crude drug; assay type: physicochemical
stability of crude drugs = assay type: physicochemical; conditions: light and heat
[2] = adjuvant compatibility, high temperature (60° C.) test; assay type: physicochemical
[3] = adjuvant compatibility, high humidity (92.5% relative humidity) test; assay type: physicochemical; conditions: 25° C.
[4] = adjuvant compatibility, bright light exposure test; assay type: physicochemical; conditions: light 4500 lx ± 500 lx
Text: Samples were taken and examined on 0, 5th, 10th days, respectively, and results were depicted in Table 7.

[5] = pH of chlorogenic acid solutions
[6] = pH-degradation reaction rate of chlorogenic acid in buffer solutions
[7] = from pH-degradation reaction rate curve

hygroscopicity [1]: had hygroscopicity
stability of crude drug (stability of crude drugs): sensitive to light and heat
Content ([2]; day 0): 99.51%
Description ([2]; day 0): Off-white
Loss on drying ([2]; day 0): 2.31%
Related substances Others 2 ([2]; day 0): 0.154%
Related substances Others 3 ([2]; day 0): 0.211%
Related substances Others 4 ([2]; day 0): 0.035%
Related substances Others Total ([2]; day 0): 0.504%
Content ([2]; day 5): 99.36%
Description ([2]; day 5): Dark brown
Loss on drying ([2]; day 5): 2.25%
Related substances Others 2 ([2]; day 5): 0.160%
Related substances Others 3 ([2]; day 5): 0.294%
Related substances Others 4 ([2]; day 5): 0.039%
Related substances Others Total ([2]; day 5): 0.627%
Content ([2]; day 10): 99.31%
Description ([2]; day 10): Dark brown
Loss on drying ([2]; day 10): 2.13%
Related substances Others 1 ([2]; day 10): 0.143%
Related substances Others 2 ([2]; day 10): 0.175%
Related substances Others 3 ([2]; day 10): 0.306%
Related substances Others 4 ([2]; day 10): 0.047%
Related substances Others Total ([2]; day 10): 0.670%
Content ([3]; day 0): 99.51%
Description ([3]; day 0): Off white
Loss on drying ([3]; day 0): 2.31%
Related substances Others 2 ([3]; day 0): 0.154%
Related substances Others 3 ([3]; day 0): 0.211%
Related substances Others 4 ([3]; day 0): 0.035%
Related substances Others Total ([3]; day 0): 0.504%
Content ([3]; day 5): 99.47%
Description ([3]; day 5): Pale yellow
Loss on drying ([3]; day 5): 4.22%
Related substances Others 2 ([3]; day 5): 0.157%
Related substances Others 3 ([3]; day 5): 0.203%
Related substances Others 4 ([3]; day 5): 0.036%
Related substances Others Total ([3]; day 5): 0.518%
Content ([3]; day 10): 99.43%
Description ([3]; day 10): Pale yellow
Loss on drying ([3]; day 10): 4.75%
Related substances Others 2 ([3]; day 10): 0.174%
Related substances Others 3 ([3]; day 10): 0.221%
Related substances Others 4 ([3]; day 10): 0.041%
Related substances Others Total ([3]; day 10): 0.570%
Content ([4]; day 0): 99.51%
Description ([4]; day 0): Off white
Loss on drying ([4]; day 0): 2.31%
Related substances Others 2 ([4]; day 0): 0.154%
Related substances Others 3 ([4]; day 0): 0.211%
Related substances Others 4 ([4]; day 0): 0.035%
Related substances Others Total ([4]; day 0): 0.504%
Content ([4]; day 5): 99.15%
Description ([4]; day 5): Dark brown
Loss on drying ([4]; day 5): 2.38%
Related substances Others 2 ([4]; day 5): 0.483%
Related substances Others 3 ([4]; day 5): 0.223%
Related substances Others 4 ([4]; day 5): 0.037%
Related substances Others Total ([4]; day 5): 0.871%
Content ([4]; day 10): 99.07%
Description ([4]; day 10): Dark brown
Loss on drying ([4]; day 10): 2.54%
Related substances Others 2 ([4]; day 10): 0.498%
Related substances Others 4 ([4]; day 10): 0.044%
pH value of solution ([5]; […] solution before freeze-drying): about 3.0
pH value of solution ([5]; concentration 0.03%): about 3.5
Concentration of chlorogenic acid ([6]; buffer pH 1.5, 0 h): 108.07 µg/mL
Concentration of chlorogenic acid ([6]; buffer pH 1.5, 3 h): 97.95 µg/mL
Concentration of chlorogenic acid ([6]; buffer pH 1.5, 7 h): 92.20 µg/mL
Concentration of chlorogenic acid ([6]; buffer pH 1.5, 11 h): 78.65 µg/mL
Concentration of chlorogenic acid ([6]; buffer pH 1.5, 17 h): 76.80 µg/mL
Concentration of chlorogenic acid ([6]; buffer pH 1.5, 22 h): 68.79 µg/mL
Concentration of chlorogenic acid ([6]; buffer pH 2.0, 0 h): 108.42 µg/mL
Concentration of chlorogenic acid ([6]; buffer pH 2.0, 3 h): 98.91 µg/mL
Concentration of chlorogenic acid ([6]; buffer pH 2.0, 7 h): 97.79 µg/mL
Concentration of chlorogenic acid ([6]; buffer pH 2.0, 11 h): 99.67 µg/mL
Concentration of chlorogenic acid ([6]; buffer pH 2.0, 17 h): 90.77 µg/mL
Concentration of chlorogenic acid ([6]; buffer pH 2.0, 22 h): 88.26 µg/mL
Concentration of chlorogenic acid ([6]; buffer pH 3.0, 0 h): 107.51 µg/mL
Concentration of chlorogenic acid ([6]; buffer pH 3.0, 3 h): 103.02 µg/mL
Concentration of chlorogenic acid ([6]; buffer pH 3.0, 7 h): 101.91 µg/mL
Concentration of chlorogenic acid ([6]; buffer pH 3.0, 11 h): 102.01 µg/mL
Concentration of chlorogenic acid ([6]; buffer pH 3.0, 17 h): 96.77 µg/mL
Concentration of chlorogenic acid ([6]; buffer pH 3.0, 22 h): 95.18 µg/mL
Concentration of chlorogenic acid ([6]; buffer pH 4.0, 0 h): 106.38 µg/mL
Concentration of chlorogenic acid ([6]; buffer pH 4.0, 7 h): 95.78 µg/mL
Concentration of chlorogenic acid ([6]; buffer pH 4.0, 11 h): 91.29 µg/mL
Concentration of chlorogenic acid ([6]; buffer pH 4.0, 17 h): 85.09 µg/mL
Concentration of chlorogenic acid ([6]; buffer pH 4.0, 22 h): 80.21 µg/mL
Concentration of chlorogenic acid ([6]; buffer pH 5.1, 0 h): 105.96 µg/mL
Concentration of chlorogenic acid ([6]; buffer pH 5.1, 3 h): 97.99 µg/mL
Concentration of chlorogenic acid ([6]; buffer pH 5.1, 7 h): 88.87 µg/mL
Concentration of chlorogenic acid ([6]; buffer pH 5.1, 11 h): 81.70 µg/mL
Concentration of chlorogenic acid ([6]; buffer pH 5.1, 17 h): 66.59 µg/mL
Concentration of chlorogenic acid ([6]; buffer pH 5.1, 22 h): 55.83 µg/mL
Concentration of chlorogenic acid ([6]; buffer pH 6.2, 0 h): 105.67 µg/mL
Concentration of chlorogenic acid ([6]; buffer pH 6.2, 3 h): 67.91 µg/mL
Concentration of chlorogenic acid ([6]; buffer pH 6.2, 7 h): 43.91 µg/mL
Concentration of chlorogenic acid ([6]; buffer pH 6.2, 11 h): 33.46 µg/mL
Concentration of chlorogenic acid ([6]; buffer pH 6.2, 17 h): 22.91 µg/mL
Concentration of chlorogenic acid ([6]; buffer pH 6.2, 22 h): 18.48 µg/mL
pH value of most stable solution [6, 7]: 3
pH values at which aqueous solutions were more stable [6, 7]: 2-4
Compound: O=C(/C=C/c1ccc(O)c(O)c1)O[C@@H]1C[C@](O)(C(=O)O)C[C@@H](O)[C@H]1O [chlorogenic acid]
lgk ([6]; pH 1.5): −1.7036
constants of reaction rate k ([6]; pH 1.5, first order degradation): 0.0198
lgk ([6]; pH 2.0): −2.0947
constants of reaction rate k ([6]; pH 2.0, first order degradation): 0.0080
lgk ([6]; pH 3.0): −2.2931
constants of reaction rate k ([6]; pH 3.0, first order degradation): 0.0051
lgk ([6]; pH 4.0): −1.9027
lgk ([6]; pH 5.1): −1.5412
constants of reaction rate k ([6]; pH 5.1, first order degradation): 0.0288
lgk ([6]; pH 6.2): −1.1144
constants of reaction rate k ([6]; pH 6.2, first order degradation): 0.0768

Source: patent US9918956B2 (SICHUAN JIUZHANG BIOLOGICAL SCIENCE AND TECHNOLOGY CO., LTD, priority 2013, dated 2018)
